# Test results as given in PubChem BioAssay AID2060508 (Molecular Pharmacology Branch, DTP, NCI, 2025).
# System: 454973-116-R2-J3-PDC spheroids, viability, % test/control
# Experiment: Anticancer human tumor 454973-116-R2-J3-PDC patient-derived pancreatic carcinoma cell line growth inhibition [GQUAD]
# Details: spheroids with HUVEC and MSC; for IC50: curve of first compound; for viability, T/C: stronger effect = lower value
# Summary of the method: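 Viability of tumor cells grown as complex spheroids with endothelial and stromal cells, exposed to drug combinations. Top concentration at or near clinical Cmax (else 10 microM), diluted in half-log increments.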
# [1] = second compound 0.0316 µM, first compound 0.000999 µM
# [2] = second compound 0.0316 µM, first compound 0.00316 µM
# [3] = second compound 0.0316 µM, first compound 0.00999 µM
# [4] = second compound 0.0316 µM, first compound 0.0316 µM
# [5] = second compound 0.0316 µM, first compound 0.0999 µM
# [6] = second compound 0.0316 µM, first compound 0.316 µM
# [7] = second compound 0.1 µM, first compound 0.000999 µM
# [8] = second compound 0.1 µM, first compound 0.00316 µM
# [9] = second compound 0.1 µM, first compound 0.00999 µM
# [10] = second compound 0.1 µM, first compound 0.0316 µM
# [11] = second compound 0.1 µM, first compound 0.0999 µM
# [12] = second compound 0.1 µM, first compound 0.316 µM
# [13] = second compound 0.316 µM, first compound 0.000999 µM
# [14] = second compound 0.316 µM, first compound 0.00316 µM
# [15] = second compound 0.316 µM, first compound 0.00999 µM
# [16] = second compound 0.316 µM, first compound 0.0316 µM
# [17] = second compound 0.316 µM, first compound 0.0999 µM
# [18] = second compound 0.316 µM, first compound 0.316 µM
# [19] = second compound 1 µM, first compound 0.000999 µM
# [20] = second compound 1 µM, first compound 0.00316 µM
# [21] = second compound 1 µM, first compound 0.00999 µM
# [22] = second compound 1 µM, first compound 0.0316 µM
# [23] = second compound 1 µM, first compound 0.0999 µM
# [24] = second compound 1 µM, first compound 0.316 µM
# [25] = second compound 3.16 µM, first compound 0.000999 µM
# [26] = second compound 3.16 µM, first compound 0.00316 µM
# [27] = second compound 3.16 µM, first compound 0.00999 µM
# [28] = second compound 3.16 µM, first compound 0.0316 µM
# [29] = second compound 3.16 µM, first compound 0.0999 µM
# [30] = second compound 3.16 µM, first compound 0.316 µM
# [31] = second compound 10 µM, first compound 0.000999 µM
# [32] = second compound 10 µM, first compound 0.00316 µM
# [33] = second compound 10 µM, first compound 0.00999 µM
# [34] = second compound 10 µM, first compound 0.0316 µM
# [35] = second compound 10 µM, first compound 0.0999 µM
# [36] = second compound 10 µM, first compound 0.316 µM
# 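Note: spheroids exposed to compounds for seven days.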
# 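Throughout, for viability, T/C: 100% = DMSO vehicle control viability.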
smiles,measurement,setting,value
Cc1[nH]c2ccccc2c1CCNCc1ccc(/C=C/C(=O)NO)cc1 + Cc1[nH]c2ccc(F)cc2c1-c1nc2c3cccnc3c3ncccc3c2[nH]1,IC50,second compound 0.0316 µM,74.3 nM
same,IC50,second compound 0.1 µM,75.8 nM
same,IC50,second compound 0.316 µM,77.5 nM
same,IC50,second compound 1 µM,68.4 nM
same,IC50,second compound 3.16 µM,72.8 nM
same,IC50,second compound 10 µM,81.7 nM
same,"viability, T/C",[1],107%
same,"viability, T/C",[2],104%
same,"viability, T/C",[3],104%
same,"viability, T/C",[4],85.7%
same,"viability, T/C",[5],37.6%
same,"viability, T/C",[6],6.79%
same,"viability, T/C",[7],104%
same,"viability, T/C",[8],109%
same,"viability, T/C",[9],108%
same,"viability, T/C",[10],94.5%
same,"viability, T/C",[11],36%
same,"viability, T/C",[12],7.21%
same,"viability, T/C",[13],110%
same,"viability, T/C",[14],110%
same,"viability, T/C",[15],90.4%
same,"viability, T/C",[16],88.8%
same,"viability, T/C",[17],38.3%
same,"viability, T/C",[18],6.45%
same,"viability, T/C",[19],106%
same,"viability, T/C",[20],97.5%
same,"viability, T/C",[21],99.1%
same,"viability, T/C",[22],79.8%
same,"viability, T/C",[23],35.3%
same,"viability, T/C",[24],9.42%
same,"viability, T/C",[25],99.7%
same,"viability, T/C",[26],94.3%
same,"viability, T/C",[27],85.3%
same,"viability, T/C",[28],86.6%
same,"viability, T/C",[29],36.2%
same,"viability, T/C",[30],9.17%
same,"viability, T/C",[31],96.2%
same,"viability, T/C",[32],87.9%
same,"viability, T/C",[33],92.3%
same,"viability, T/C",[34],75.5%
same,"viability, T/C",[35],44.6%
same,"viability, T/C",[36],11%
CC[C@@]1(O)C(=O)OCc2c1cc1n(c2=O)Cc2cc3c(CN(C)C)c(O)ccc3nc2-1 + Cc1[nH]c2ccc(F)cc2c1-c1nc2c3cccnc3c3ncccc3c2[nH]1,IC50,second compound 0.0316 µM,52.7 nM
same,IC50,second compound 0.1 µM,47.8 nM
same,IC50,second compound 0.316 µM,45.4 nM
same,IC50,second compound 1 µM,44.3 nM
same,IC50,second compound 3.16 µM,52.3 nM
same,IC50,second compound 10 µM,37.9 nM
same,"viability, T/C",[1],97.3%
same,"viability, T/C",[2],95.9%
same,"viability, T/C",[3],94.7%
same,"viability, T/C",[4],69.2%
same,"viability, T/C",[5],25%
same,"viability, T/C",[6],26.9%
same,"viability, T/C",[7],114%
same,"viability, T/C",[8],93.7%
same,"viability, T/C",[9],102%
same,"viability, T/C",[10],66%
same,"viability, T/C",[11],20.8%
same,"viability, T/C",[12],21.8%
same,"viability, T/C",[13],102%
same,"viability, T/C",[14],119%
same,"viability, T/C",[15],92.7%
same,"viability, T/C",[16],65%
same,"viability, T/C",[17],19.7%
same,"viability, T/C",[18],20.7%
same,"viability, T/C",[19],103%
same,"viability, T/C",[20],99.3%
same,"viability, T/C",[21],94.6%
same,"viability, T/C",[22],62.4%
same,"viability, T/C",[23],19.6%
same,"viability, T/C",[24],20.7%
same,"viability, T/C",[25],97.7%
same,"viability, T/C",[26],101%
same,"viability, T/C",[27],85%
same,"viability, T/C",[28],70.9%
same,"viability, T/C",[29],20.8%
same,"viability, T/C",[30],25.2%
same,"viability, T/C",[31],100%
same,"viability, T/C",[32],83.9%
same,"viability, T/C",[33],82.3%
same,"viability, T/C",[34],56.7%
same,"viability, T/C",[35],23.2%
same,"viability, T/C",[36],23%
CC(C)(O)C1CCC(Nc2ccc3ncc(-c4cccc(C(F)(F)F)c4)n3n2)CC1 (stereo unspecified) + Cc1[nH]c2ccc(F)cc2c1-c1nc2c3cccnc3c3ncccc3c2[nH]1,IC50,second compound 0.0316 µM,1860 nM
same,IC50,second compound 0.1 µM,1870 nM
same,IC50,second compound 0.316 µM,1840 nM
same,IC50,second compound 1 µM,1580 nM
same,IC50,second compound 3.16 µM,1630 nM
same,IC50,second compound 10 µM,1390 nM
same,"viability, T/C",[4],112%
same,"viability, T/C","second compound 0.0316 µM, first compound 0.1 µM",97.4%
same,"viability, T/C",[6],96.6%
same,"viability, T/C","second compound 0.0316 µM, first compound 1 µM",76.8%
same,"viability, T/C","second compound 0.0316 µM, first compound 3.16 µM",21.8%
same,"viability, T/C","second compound 0.0316 µM, first compound 10 µM",32.2%
same,"viability, T/C",[10],108%
same,"viability, T/C","second compound 0.1 µM, first compound 0.1 µM",100%
same,"viability, T/C",[12],92.1%
same,"viability, T/C","second compound 0.1 µM, first compound 1 µM",78.1%
same,"viability, T/C","second compound 0.1 µM, first compound 3.16 µM",23.1%
same,"viability, T/C","second compound 0.1 µM, first compound 10 µM",29.8%
same,"viability, T/C",[16],102%
same,"viability, T/C","second compound 0.316 µM, first compound 0.1 µM",98.1%
same,"viability, T/C",[18],105%
same,"viability, T/C","second compound 0.316 µM, first compound 1 µM",78.4%
same,"viability, T/C","second compound 0.316 µM, first compound 3.16 µM",18.3%
same,"viability, T/C","second compound 0.316 µM, first compound 10 µM",31.6%
same,"viability, T/C",[22],98.2%
same,"viability, T/C","second compound 1 µM, first compound 0.1 µM",95.6%
same,"viability, T/C",[24],95.5%
same,"viability, T/C","second compound 1 µM, first compound 1 µM",67.1%
same,"viability, T/C","second compound 1 µM, first compound 3.16 µM",23.8%
same,"viability, T/C","second compound 1 µM, first compound 10 µM",22.8%
same,"viability, T/C",[28],95.1%
same,"viability, T/C","second compound 3.16 µM, first compound 0.1 µM",98.8%
same,"viability, T/C",[30],90.9%
same,"viability, T/C","second compound 3.16 µM, first compound 1 µM",67.3%
same,"viability, T/C","second compound 3.16 µM, first compound 3.16 µM",21.4%
same,"viability, T/C","second compound 3.16 µM, first compound 10 µM",31.4%
same,"viability, T/C",[34],87.6%
same,"viability, T/C","second compound 10 µM, first compound 0.1 µM",81.3%
same,"viability, T/C",[36],89%
same,"viability, T/C","second compound 10 µM, first compound 1 µM",59.6%
same,"viability, T/C","second compound 10 µM, first compound 3.16 µM",21.7%
same,"viability, T/C","second compound 10 µM, first compound 10 µM",30.7%
